Source: patent US6207671A, “Cycloalkano-pyridines” (Bayer Aktiengesellschaft, priority 1996, dated 2001)

Legend:
[1] = molecular target: T1, cholesterol ester transfer protein (CETP) (Homo sapiens, UniProt P11597); assay: CETP inhibition test: transfer of 3H-cholesterol ester from human HD lipoproteins to biotinylated LD lipoproteins (SPA); format: biochemical; details: human plasma CETP, 18 h, 37° C.
T1 construct: CETP is obtained from human plasma in partially purified form; from tissue; host or cells: human plasma
T1 sequence (P11597 18-493): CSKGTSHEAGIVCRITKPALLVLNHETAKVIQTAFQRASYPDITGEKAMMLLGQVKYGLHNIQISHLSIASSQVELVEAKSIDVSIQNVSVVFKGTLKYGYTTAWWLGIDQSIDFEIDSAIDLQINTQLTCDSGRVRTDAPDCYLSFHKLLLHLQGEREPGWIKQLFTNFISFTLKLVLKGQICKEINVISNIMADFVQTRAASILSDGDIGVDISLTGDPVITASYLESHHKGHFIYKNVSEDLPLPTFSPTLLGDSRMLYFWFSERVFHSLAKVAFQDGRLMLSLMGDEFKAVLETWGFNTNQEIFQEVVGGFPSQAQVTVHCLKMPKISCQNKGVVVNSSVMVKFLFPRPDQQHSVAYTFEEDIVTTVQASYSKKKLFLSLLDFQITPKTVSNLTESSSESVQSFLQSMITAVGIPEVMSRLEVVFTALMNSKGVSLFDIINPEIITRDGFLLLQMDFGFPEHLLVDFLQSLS
Experimental: CETP is obtained from human plasma in partially purified form by differential centrifugation and column chromatography and used for the test. To this end, human plasma is adjusted to a density of 1.21 g per ml using NaBr and centrifuged at 4° C. for 18 h at 50,000 rpm. The bottom fraction (d>1.21 g/ml) is applied to a Sephadex®phenyl-sepharose 4B (Pharmacia) column, washed with 0.15 M NaCl/0.001 M trisHCl pH 7.4 and then eluted with distilled water. The CETP-active fractions are pooled, dialysed against 50 mM Na acetate pH 4.5 and applied to a CM-Sepharose® (Pharmacia) column. The column is then eluted using a linear gradient (0-1 M NaCl). The pooled CETP fractions are dialysed against 10 mM trisHCl pH 7.4 and then further purified by chromatography on a Mono Q® column (Pharmacia).
50 ml of fresh human EDTA plasma are adjusted to a density of 1.12 using NaBr and centrifuged at 50,000 rpm for 18 h at 4° C. in a Ty 65 rotor. The upper phase is used to obtain cold LDL. The lower phase is dialysed against 3×4 l of PDB buffer (10 mM tris/HCl pH 7.4, […] NaCl, 1 mM EDTA, 0.02% NaN3). 20 μl of ^3 H-cholesterol (Dupont NET-725; 1 μC/μl dissolved in ethanol) are then added per 10 ml of retentate volume and the mixture is incubated under N2 at 37° C. for 72 h.
The mixture is then adjusted to the density 1.21 using NaBr and centrifuged at 20° C. for 18 h at 50,000 rpm in the Ty 65 rotor. The upper phase is recovered and the lipoprotein fractions are purified by gradient centrifugation. To this end, the isolated, labelled lipoprotein fraction is adjusted to a density of 1.26 using NaBr. Each 4 ml of this solution are covered with a layer of 4 ml of a solution of density 1.21 and 4.5 ml of a solution of 1.063 (density solutions from PDB buffer and NaBr) in centrifuge tubes (SW 40 rotor) and then centrifuged in the SW 40 rotor for 24 h at 38,000 rpm and 20° C. The intermediate layer lying between the densities 1.063 and 1.21 and containing the labelled HDL is dialysed at 4° C. against 3×100 volumes of PDB buffer.
The retentate contains radiolabelled ^3 H-CE-HDL which, adjusted to about 5×10^6 cmp per ml, is used for the test.
To test the CETP activity, the transfer of ^3 H-cholesterol ester from human HD lipoproteins to biotinylated LD lipoproteins is measured.
The reaction is ended by addition of streptavidin-SPA®beads (Amersham) and the transferred radioactivity is determined directly in a liquid scintillation counter.
In the test mixture, 10 μl of HDL-^3 H-cholesterol ester (~50,000 cpm) are incubated at 37° C. for 18 h with 10 μl of biotin-LDL (Amersham) in 50 mM Hepes/0.15 M NaCl/0.1% bovine serum albumin/0.05% NaN3 pH 7.4 with 10 μl of CETP (1 mg/ml) and 3 μl of solution of the substance to be tested (dissolved in 10% DMSO/1% RSA). 200 μl of the SPA-streptavidin bead solution (TRKQ 7005) are then added, the mixture is incubated further for 1 h with shaking and then measured in the scintillation counter. As controls, corresponding incubations with 10 μl of buffer, 10 μl of CETP at 4° C. and 10 μl of CETP at 37° C. are used.
The activity transferred into the control mixtures with CETP at 37° C. is rated as 100% transfer. The substance concentration at which this transfer is reduced by half is indicated as the IC50 value.

HDL cholesterol = assay: In vivo activity: oral action on lipoproteins and triglycerides in hamsters (HDL rise); set-up: species or system Syrian golden hamsters; details: dose 2 × 3 mg/kg, up to 24 hours
Experimental: In experiments to determine the oral action on lipoproteins and triglycerides, test substance dissolved in DMSO and 0.5% Tylose suspended by means of a stomach tube are administered orally to Syrian golden hamsters from in-house breeding. To determine the CETP activity, blood (about 250 μl) is taken by retro-orbital puncture before the start of the experiment. The test substances are then administered orally by means of a stomach tube. The control animals receive identical volumes of solvents without test substance. The feed is then withdrawn from the animals and blood is taken at various times--up to 24 hours after substance administration--by puncture of the retro-orbital venous plexus. Clotting is ended by incubation at 4° C. overnight, then centrifugation at 6000×g is carried out for 10 minutes. In the serum thus obtained, the content of cholesterol and triglycerides is determined with the aid of modified commercially available enzyme tests (cholesterol enzymatic 14366 Merck, triglycerides 14364 Merck). Serum is suitably diluted using physiological saline solution.
100 μl of serum dilution are mixed with 100 μl of […] in 96-hole plates and incubated at room temperature for 10 minutes. The optical density is then determined at a wavelength of 492 nm using an automatic plate-reading apparatus. The triglyceride or cholesterol concentration contained in the samples is determined with the aid of a standard curve measured in parallel.
The determination of the content of HDL cholesterol is carried out according to the manufacturer's instructions after precipitation of the ApoB-containing lipoproteins by means of a reagent mixture (Sigma 352-4 HDL cholesterol reagent).

CETP = assay: Ex vivo activity: CETP activity in serum of treated hamsters (modified CETP test); set-up: species or system Syrian golden hamsters; details: for % Inhibition at 30 mg/kg: ex vivo CETP activity in hamster serum; for ED50 values for ex vivo activity: hamster serum, up to 24 hours after administration
Experimental: Syrian golden hamsters from in-house breeding are anaesthetized after fasting for 24 hours (0.8 mg/kg of atropine, 0.8 mg/kg of Ketavet® s.c., 30'later 50 mg/kg of Nembutal i.p.). The jugular vein is then exposed and cannulated. The test substance is dissolved in a suitable solvent (as a rule Adalat placebo solution: 60 g of glycerol, 100 ml of H2 O, PEG-400 to 1000 ml) and administered to the animals via a PE catheter inserted in the jugular vein. The control animals receive the same volume of solvent without test substance. The vein is then tied off and the wound is closed. The administration of the test substances can also be carried out p.o., by orally administering the substances dissolved in DMSO and suspended in 0.5% Tylose by means of a stomach tube. The control animals receive identical volumes of solvent without test substance.
After various times--up to 24 hours after administration--blood (about 250 μl) is taken from the animals by puncture of the retro-orbital venous plexus. Clotting is ended by incubation at 4° C. overnight, then centrifugation is carried out at 6000×g for 10 minutes. In the serum thus obtained, CETP activity is determined by the modified CETP test. As for the CETP test described above, the transfer of ^3 H-cholesterol ester from HD lipoproteins to biotinylated LD lipoproteins is measured.
The reaction is ended by addition of Streptavidin-SPA®beads (Amersham) and the transferred radioactivity is determined directly in the liquid scintillation counter.
The test mixture is carried out as described under "CETP test". For the testing of the serum, only 10 μl of CETP are replaced by 10 μl of the corresponding serum samples. As controls, corresponding incubations with sera of untreated animals are used.
The activity transferred in the control mixtures with control sera is rated as 100% transfer. The substance concentration at which this transfer is reduced to a half is indicated as the ED50 value.

[2] = tested on: lipoproteins and triglycerides; assay: In vivo activity in transgenic hCETP mice (lipoproteins and triglycerides); details: 400 ppm in the feed, one week
Experimental: Transgenic mice from in-house breeding (Dinchuck, Hart, Gonzalez, Karmann, Schmidt, Wirak; BBA (1995), 1295, 301) were administered the substances to be tested in the feed. Before the start of the experiment, blood was taken retro-orbitally from the mice in order to determine cholesterol and triglycerides in the serum. The serum was obtained as described above for hamsters by incubation at 4° C. overnight and subsequent centrifugation at 6000×g. After one week, blood was again taken from the mice in order to determine lipoproteins and triglycerides. The change in the parameters measured is expressed as a percentage change compared with the starting value.

In the case of `CC(C)c1nc2c(c(-c3ccc(F)cc3)c1C(F)c1ccc(C(F)(F)F)cc1)C(O)CC(C)(C)C2` (single isomer, unassigned) [Example 90], the IC50 [1] is reported as 60 nM.
In the case of `CC1(C)Cc2nc(C3CCCC3)c(C(F)c3ccc(C(F)(F)F)cc3)c(-c3ccc(F)cc3)c2C(O)C1` (single isomer, unassigned) [Example 91], the “% HDL rise” value (HDL cholesterol) is reported as “+12.58%”.
In the case of `CC(C)c1nc2c(c(-c3ccc(F)cc3)c1C(F)c1ccc(C(F)(F)F)cc1)C(O)CC1(CC1)C2` (single isomer, unassigned) [Example 313], the IC50 [1] is reported as 0.2 nM.
For `OC1CC(C2CC2)Cc2nc(C3CCCC3)c(C(F)c3ccc(C(F)(F)F)cc3)c(-c3ccc(F)cc3)c21` (centres unmarked) [Example 209], the “% HDL rise” value (HDL cholesterol) was “+25.94%”.
In the case of `CC1(C)Cc2nc(C3CCCC3)c(C(F)c3ccc4ccccc4c3)c(-c3ccc(F)cc3)c2C(O)C1` (single isomer, unassigned) [Example 184], the “% Inhibition at 30 mg/kg” value (CETP) is reported as 53.5% and the “ED50 values for ex vivo activity” value (CETP) is reported as < 30 mg/kg.
For `CC1Cc2nc(C(C)C)c(C(F)c3ccc(C(F)(F)F)cc3)c(-c3ccc(F)cc3)c2C(O)C1` (centres unmarked) [Example 115], the “% Inhibition at 30 mg/kg” value (CETP) was 61.9% and the “ED50 values for ex vivo activity” value (CETP) was < 30 mg/kg.
`CC1(C)Cc2nc(C3CCCC3)c(C(F)c3ccc(Cl)c(C(F)(F)F)c3)c(-c3ccc(F)cc3)c2C(O)C1` (single isomer, unassigned) [Example 170] was tested, and the “% Inhibition at 30 mg/kg” value (CETP) was 60.1% and the “ED50 values for ex vivo activity” value (CETP) was < 30 mg/kg.
With `CC1Cc2nc(C3CCCC3)c(C(F)c3ccc(C(F)(F)F)cc3F)c(-c3ccc(F)cc3)c2C(O)C1` (single isomer, unassigned) [Example 181] the “% Inhibition at 30 mg/kg” value (CETP) was 46.4% and the “ED50 values for ex vivo activity” value (CETP) was > 30 mg/kg.
With `CC(C)c1nc2c(c(-c3ccc(F)cc3)c1C(F)c1ccc(C(F)(F)F)cc1)C(O)CC1CC21` (single isomer, unassigned) [Example 237] the IC50 [1] was 800 nM and the “% HDL rise” value (HDL cholesterol) was “+21.03%”.
`CC(C)c1nc2c(c(-c3ccc(F)cc3)c1C(F)c1ccc(C(F)(F)F)cc1)C(O)CC1(CCCC1)C2` (single isomer, unassigned) [Example 291] gave an IC50 [1] of 30 nM.
With `OC1CC2(CCCC2)Cc2nc(C3CCCC3)c(C(F)c3ccc(C(F)(F)F)cc3)c(-c3ccc(F)cc3)c21` (single isomer, unassigned) [Example 300] the IC50 [1] was 0.2 nM.
Compound `CC1(C)Cc2nc(C3CCCC3)c(C(F)c3ccc4c(c3)OC(F)(F)O4)c(-c3ccc(F)cc3)c2C(O)C1` (single isomer, unassigned) [Example 244] has an IC50 [1] of 60 nM.
Compound `CC(C)c1nc2c(c(-c3ccc(F)cc3)c1C(F)c1ccc(C(F)(F)F)cc1)C(O)CC1(CC1)C2` (single isomer, unassigned) [Example 312] has an IC50 [1] of 60 nM.
`CC1Cc2nc(C(C)C)c(C(F)c3ccc(C(F)(F)F)cc3)c(-c3ccc(F)cc3)c2C(O)C1` (centres unmarked) [Example 117] was tested, and the “% Inhibition at 30 mg/kg” value (CETP) was 86.0% and the “ED50 values for ex vivo activity” value (CETP) was < 30 mg/kg.
For `OCC1Cc2nc(C3CCCC3)c(C(F)c3ccc(C(F)(F)F)cc3)c(-c3ccc(F)cc3)c2C(O)C1` (single isomer, unassigned) [Example 211], the “% HDL rise” value (HDL cholesterol) was “+7.54%”.
`CC1Cc2nc(C3CCCC3)c(C(F)c3ccc(C(F)(F)F)cc3)c(-c3ccc(F)cc3)c2C(O)C1` (single isomer, unassigned) [Example 76] was tested, and the IC50 [1] was 6 nM, the “HDL (percentage change compared with the starting value)” value [2] was “+31.25%” and the “LDL (percentage change compared with the starting value)” value [2] was -15.3%. For the same compound, the “Triglycerides (percentage change compared with the starting value)” value [2] was -11.7% and the “% HDL rise” value (HDL cholesterol) was “+15.81%”.
Work on `CC1(C)Cc2nc(C3CCCC3)c(C(N=[N+]=[N-])c3ccc(C(F)(F)F)cc3)c(-c3ccc(F)cc3)c2C(O)C1` (centres unmarked) [Example 195] yielded an IC50 [1] of 750 nM.
`OC1CC2(CCC2)Cc2nc(C3CCCC3)c(C(F)c3ccc(C(F)(F)F)cc3)c(-c3ccc(F)cc3)c21` (centres unmarked) [Example 329] showed an IC50 [1] of 1.5 nM.
`OC1CC2(CC2)Cc2nc(C3CCCC3)c(C(F)c3ccc(C(F)(F)F)cc3)c(-c3ccc(F)cc3)c21` (single isomer, unassigned) [Example 319] was tested, and the IC50 [1] was 50 nM.
